{"source": "patent US11299515B2", "about": "“Optimized peptides for targeting human nerves and their use in image guided surgery, diagnostics and therapeutic” (The Regents of the University of California, priority 2017, dated 2022)", "key": {"sciatic nerve": {"tested_on": "sciatic nerve", "format": "in vivo, mice", "settings": "450 nmols i.v., SKH1 mice", "method": "Either 150 or 450 nmoles of fluorescein labeled synthetic peptides were injected intravenously into mice. After a 2 hour waiting period for washout of nonspecific binding, mice were anesthetized and skin incisions were made over the dorsal surface of the hind legs to expose the sciatic nerve. Brightfield and fluorescent images were obtained with a dissecting microscope using Metamorph software (FIG. 1). Quantitation of fluorescence of nerves and adjacent non-nerve tissue was performed with Image J (FIG. 2). Peptides were also topically applied to human nerve sections. Nerves were freshly frozen in OTC prior to sectioning. Peptides were topically applied at concentration at 300 uM with images being shown for HNP401, HNP402, HNP404 and previous reported nerve binding peptides NP41 (FIG. 3)). Also shown are images for variants HNP301 ([…]) and NP124. NP713 was also tested and has not reported in a publication. NP713, is a derivative of NP41 with sequence […] that was enriched after 7 rounds of selection against mouse tissue, and was also found after 4 rounds of selection against human tissue. […] All D-amino acid controls for NP-41 and NP713 and non peptide conjugated carboxyfluorescein, are also shown. […] HNP401 was then tested for labeling of rat sciatic and rat prostate cavernosal nerve in-vivo. […] FIGS. 6 and 7 show in-vivo labeling of rat prostate cavernosal nerve with comparison to white light visualization.\nFollowing anesthesia with intra-peritoneal injection of ketamine (80 mg/kg) and midazolam (40 mg/kg), FAM-NP41 or its variants were administered into mice retro-orbitally. After a washout period of 2-4 hours, the animals were anesthetized with ketamine (50 mg/ml) and xylazine (20 mg/ml). The bladder and prostate were exposed through a midline abdominal incision. The autonomic nerve along the cavernosal vessel in the prostate was imaged and recorded using a custom-made surgical imaging system. This system is a modified from Olympus MVX10 scope capable of hi-resolution fluorescence, RGB reflectance and realtime overlay with zoom from 0.6 to 5.7 cm field of view. Image) was used for quantitative analysis of nerve contrast for each peptide dye conjugate tested. Images of autonomic nerve in prostate were selected from the recorded files and magnified 300-400% prior to selection of ROI and measurement. Nerves and adjacent non-nerve tissues ROIs were hand-selected using polygonal selection tool at the same location from both of reflectance and fluorescence images. The mean and standard deviation of the pixel intensities within the selected areas were compared for nerves (mean=In, SD=σn) and adjacent background tissue (mean=Ib, SD=σb). Nerve to non-nerve contrast was calculated after background subtraction with formula |In−Ib|/(σn^2+σm^2)^0.5. For imaging the nerves in the prostate gland of male rats peptide dye conjugate were injected retro-orbitally. FAM-HNP401 was injected at a concentration of 13 mgs/kg followed by imaging after 15 minutes or alternatively a dose of 52 mgs/kg was used with imaging after 3 hours. Live animal surgery was performed under a ketamine-xylazine cocktail according to IACUC protocol. Sterile technique was used to expose the prostate; bladder was drained with a small syringe and sutured. The surgical field was washed with sterile saline prior to imaging. Mann-Whitney test was used to analyze data for both mice and rats to compare nerve intensity and nerve to non-nerve contrast between white light reflectance and fluorescence."}, "in vivo": {"test": "in vivo", "settings": "male, SKH, mouse, whole blood, iv, 100 nmol", "method": "Five 8-week-old SKH male mice were injected intravenously with 100 nmol [10.75 mg/kg for 25 gm mouse] of FAM-HNP401 in 100 μl of sterile water. Prior to blood draw mice were anesthetized with a 1:1 cocktail of ketamine: midazolam. Tail pricks were performed at 1 min, 10 min, 20 min, 30 min, 1 hr, and 2 hrs after injection to collect 5 μl whole blood which was dissolved in 100 μl Agilent ICP-MS tuning buffer. Samples were centrifuged and equal volume of supernatants were analyzed using a Tecan fluorescence plate reader."}, "mouse facial nerve": {"tested_on": "mouse facial nerve", "test": "Topical application on ex-vivo mouse facial nerve with surrounding muscle", "format": "binding", "settings": "375 and 100 μM topical"}, "[1]": {"test": "Mass spectroscopy analysis of urine after injection of nerve binding peptides"}}, "note": "“Also recorded” adds a separate entry of the source. Residues, ends and D or L forms follow the SMILES beside them. *: point of attachment. Fluorescein(5-Mal) = O=C1OC2(c3ccc(O)cc3Oc3cc(O)ccc32)c2ccc(N3C(=O)CC(*)C3=O)cc21", "data": [{"smiles": "CC(=O)N[C@@H](CO)C(=O)NCC(=O)N[C@@H](CCC(N)=O)C(=O)N[C@H](C(=O)N1CCC[C@H]1C(=O)N[C@@H](Cc1c[nH]c2ccccc12)C(=O)N[C@@H](CCC(=O)O)C(=O)N[C@@H](CCC(=O)O)C(=O)N1CCC[C@H]1C(=O)N[C@@H](Cc1ccc(O)cc1)C(=O)N[C@@H](Cc1ccc(O)cc1)C(=O)N[C@H](C(=O)N[C@H](C(=O)N[C@@H](CCCCN)C(=O)N[C@@H](CCCCN)C(=O)N[C@@H](CO)C(=O)N[C@@H](CO)C(=O)NCC(=O)NCC(=O)N[C@@H](CSC1CC(=O)N(c2ccc3c(c2)C(=O)OC32c3ccc(O)cc3Oc3cc(O)ccc32)C1=O)C(N)=O)C(C)C)C(C)C)C(C)C", "note": "(stereo partly drawn) [FAM-HNP401] (Ac-SGQVPWEEPYYVVKKSSGGC(Fluorescein(5-Mal))-NH2; N-terminus and C-terminus assumed)", "values": [{"measurement": "signal intensity for in-vivo binding to mouse sciatic nerve compared to FAM-NP41", "setting": "sciatic nerve", "result": 2.3, "unit": "×"}, {"measurement": "sciatic nerve fluorescent intensity compared to NP41", "setting": "sciatic nerve; 2 h post injection", "result": 2.3, "unit": "fold"}, {"measurement": "nerve to surrounding muscle contrast", "setting": "sciatic nerve; mouse thigh", "result": "5.79±0.81"}, {"measurement": "half-life", "setting": "in vivo", "result": 30, "unit": "min"}, {"measurement": "labeling of mouse facial nerve versus surrounding muscle", "setting": "mouse facial nerve", "result": "poor contrast; also recorded: did not perform as well as FAM-NP41"}, {"measurement": "metabolism (species detected in urine)", "setting": "[1]", "result": "partially metabolized"}]}]}
